Source: US6627628B1, “Substituted 4-amino-2-aryl-cyclopenta[d]pyrimidines, their production and use and pharmaceutical preparations containing same” (Aventis Pharma Deutschland, GmbH, priority 1998, dated 2003)

Row | SMILES | melting point
1 | Cl.Cl.Clc1ccc(-c2nc3c(c(N(Cc4ccccc4)C4CCNCC4)n2)CCC3)cc1 | 275 °C
2 | COc1cccc(CCNc2nc(-c3cccc(Cl)c3)nc3c2CCC3)c1.Cl | 192 °C
3 | COc1cccc(CCNc2nc(-c3ccc(Cl)cc3)nc3c2CCC3)c1.Cl | 230 °C
4 | COCCNc1nc(-c2ccc(Cl)cc2)nc2c1CCC2.Cl | 208 °C
5 | OCCNc1nc(-c2ccc(Cl)cc2)nc2c1CCC2 [Example 18, 2-(4-Chlorophenyl)-4-(2-hydroxyethylamino)-6,7-dihydro-5H-cyclopenta[d]-pyrimidine] | 160 °C
6 | Clc1ccc(-c2nc3c(c(NCc4cccnc4)n2)CCC3)cc1 [Example 19, 2-(4-Chlorophenyl)-4-((3-pyridylmethyl)amino)-6,7-dihydro-5H-cyclopenta[d]-pyrimidine] | 209 °C
7 | Clc1cccc(-c2nc3c(c(N4CCOCC4)n2)CCC3)c1 [Example 20, 2-(3-Chlorophenyl)-4-morpholino-6,7-dihydro-5H-cyclopenta[d]pyrimidine] | 132 °C
8 | OCCNc1nc(-c2cccc(Cl)c2)nc2c1CCC2 [Example 21, 2-(3-Chlorophenyl)-4-(2-hydroxyethylamino)-6,7-dihydro-5H-cyclopenta[d]-pyrimidine] | 150 °C
9 | Clc1cccc(-c2nc3c(c(NCc4cccnc4)n2)CCC3)c1 [Example 22, 2-(3-Chlorophenyl)-4-((3-pyridylmethyl)amino)-6,7-dihydro-5H-cyclopenta[d]-pyrimidine] | 185 °C
10 | Clc1ccc(-c2nc3c(c(N4CCSCC4)n2)CCC3)cc1 [Example 24, 2-(4-Chlorophenyl)-4-thiomorpholino-6,7-dihydro-5H-cyclopenta[d]pyrimidine] | 159 °C
11 | CC(C)CNc1nc(-c2ccc(Cl)cc2)nc2c1CCC2 [Example 29, 2-(4-Chlorophenyl)-4-isobutylamino-6,7-dihydro-5H-cyclopenta[d]pyrimidine] | 121 °C
12 | CC1(C)CC(Nc2nc(-c3cccc(Cl)c3)nc3c2CCC3)CC(C)(C)N1 [Example 31, 2-(3-Chlorophenyl)-4-(2,2,6,6-tetramethylpiperidin-4-ylamino)-6,7-dihydro-5H-cyclopenta[d]pyrimidine] | 182 °C
13 | Clc1cccc(-c2nc3c(c(N4CCCC4)n2)CCC3)c1 [Example 36, 2-(3-Chlorophenyl)-4-pyrrolidino-6,7-dihydro-5H-cyclopenta[d]pyrimidine] | 150 °C
14 | Clc1cccc(-c2nc3c(c(N4CCSCC4)n2)CCC3)c1 [Example 38, 2-(3-Chlorophenyl)-4-thiomorpholino-6,7-dihydro-5H-cyclopenta[d]pyrimidine] | 134 °C
15 | Cc1ccc(-c2nc3c(c(NCCO)n2)CCC3)cc1 [Example 39, 2-(4-Methylphenyl)-4-(2-hydroxyethylamino)-6,7-dihydro-5H-cyclopenta[d]-pyrimidine] | 191 °C
16 | Cc1ccc(-c2nc3c(c(N4CCCC4)n2)CCC3)cc1 [Example 46, 2-(4-Methylphenyl)-4-pyrrolidino-6,7-dihydro-5H-cyclopenta[d]pyrimidine] | 203 °C
17 | Cc1ccc(-c2nc3c(c(N4CCSCC4)n2)CCC3)cc1 [Example 47, 2-(4-Methylphenyl)-4-thiomorpholino-6,7-dihydro-5H-cyclopenta[d]pyrimidine] | 160 °C
18 | CCCN(CCC)c1nc(-c2cc(Cl)cc(Cl)c2)nc2c1CCC2 [Example 52, 2-(3,5-Dichlorophenyl)-4-dipropylamino-6,7-dihydro-5H-cyclopenta[d]pyrimidine] | 120 °C
19 | Clc1cc(Cl)cc(-c2nc3c(c(N4CCCCC4)n2)CCC3)c1 [Example 53, 2-(3,5-Dichlorophenyl)-4-piperidino-6,7-dihydro-5H-cyclopenta[d]pyrimidine] | 147 °C
20 | COc1ccc(-c2nc3c(c(NCCCO)n2)CCC3)cc1 [Example 54, 2-(4-Methoxyphenyl)-4-(3-hydroxypropylamino)-6,7-dihydro-5H-cyclopenta[d]-pyrimidine] | 165 °C
21 | CCCCNc1nc(-c2ccc(OC)cc2)nc2c1CCC2 [Example 55, 2-(4-Methoxyphenyl)-4-butylamino-6,7-dihydro-5H-cyclopenta[d]pyrimidine] | 119 °C
22 | COc1ccc(-c2nc3c(c(NC4CCCC4)n2)CCC3)cc1 [Example 56, 2-(4-Methoxyphenyl)-4-cyclopentylamino-6,7-dihydro-5H-cyclopenta[d]-pyrimidine] | 154 °C

The remaining lines, values ahead:

Row | melting point | SMILES
23 | 138 °C | COc1ccc(-c2nc3c(c(NC4CCCCC4)n2)CCC3)cc1 [Example 57, 2-(4-Methoxyphenyl)-4-cyclohexylamino-6,7-dihydro-5H-cyclopenta[d]-pyrimidine]
24 | 145 °C | COc1ccc(-c2nc3c(c(NCCc4ccccc4Cl)n2)CCC3)cc1 [Example 58, 2-(4-Methoxyphenyl)-4-(2-(2-chlorophenyl)ethylamino)-6,7-dihydro-5H-cyclopenta[d]pyrimidine]
25 | 74 °C | CCCN(CCC)c1nc(-c2ccc(OC)cc2)nc2c1CCC2 [Example 59, 2-(4-Methoxyphenyl)-4-dipropylamino-6,7-dihydro-5H-cyclopenta[d]pyrimidine]
26 | 99 °C | COc1ccc(-c2nc3c(c(N4CCCCCC4)n2)CCC3)cc1 [Example 60, 2-(4-Methoxyphenyl)-4-hexamethyleneimino-6,7-dihydro-5H-cyclopenta[d]-pyrimidine]
27 | 192 °C | COc1ccc(-c2nc3c(c(N4CCOCC4)n2)CCC3)cc1 [Example 61, 2-(4-Methoxyphenyl)-4-morpholino-6,7-dihydro-5H-cyclopenta[d]pyrimidine]
28 | 107 °C | COCCCNc1nc(-c2ccc(OC)c(OC)c2)nc2c1CCC2 [Example 62, 2-(3,4-Dimethoxyphenyl)-4-(3-methoxypropylamino)-6,7-dihydro-5H-cyclopenta-[d]pyrimidine]
29 | 138 °C | COc1ccc(-c2nc3c(c(NC4CCCC4)n2)CCC3)cc1OC [Example 63, 2-(3,4-Dimethoxyphenyl)-4-cyclopentylamino-6,7-dihydro-5H-cyclopenta[d]-pyrimidine]
30 | 70 °C | COc1ccc(-c2nc3c(c(NC4CCCCC4)n2)CCC3)cc1OC [Example 64, 2-(3,4-Dimethoxyphenyl)-4-cyclohexylamino-6,7-dihydro-5H-cyclopenta[d]-pyrimidine]
31 | 115 °C | CCCCNc1nc(-c2ccc(OC)c(OC)c2)nc2c1CCC2 [Example 65, 2-(3,4-Dimethoxyphenyl)-4-butylamino-6,7-dihydro-5H-cyclopenta[d]pyrimidine]
32 | 107 °C | CCCN(CCC)c1nc(-c2ccc(OC)c(OC)c2)nc2c1CCC2 [Example 66, 2-(3,4-Dimethoxyphenyl)-4-dipropylamino-6,7-dihydro-5H-cyclopenta[d]-pyrimidine]
33 | 142 °C | COc1ccc(-c2nc3c(c(N4CC(C)OC(C)C4)n2)CCC3)cc1OC (stereo not shown) [Example 67, 2-(3,4-Dimethoxyphenyl)-4-(2,6-dimethylmorpholino)-6,7-dihydro-5H-cyclopenta[d]pyrimidine]
34 | 115 °C | COc1ccc(-c2nc3c(c(N(CCO)CCO)n2)CCC3)cc1OC [Example 68, 2-(3,4-Dimethoxyphenyl)-4-(di-(2-hydroxyethyl)amino)-6,7-dihydro-5H-cyclopenta[d]pyrimidine]
35 | 130 °C | COCCCNc1nc(-c2ccc(C#N)cc2)nc2c1CCC2 [Example 69, 2-(4-Cyanophenyl)-4-(3-methoxypropylamino)-6,7-dihydro-5H-cyclopenta[d]-pyrimidine]
36 | 168 °C | N#Cc1ccc(-c2nc3c(c(NCc4ccccc4)n2)CCC3)cc1 [Example 70, 2-(4-Cyanophenyl)-4-benzylamino-6,7-dihydro-5H-cyclopenta[d]pyrimidine]
37 | 130 °C | CCN(CC)c1nc(-c2ccc(C#N)cc2)nc2c1CCC2 [Example 71, 2-(4-Cyanophenyl)-4-diethylamino-6,7-dihydro-5H-cyclopenta[d]pyrimidine]
38 | 152 °C | N#Cc1ccc(-c2nc3c(c(N4CCCCC4)n2)CCC3)cc1 [Example 72, 2-(4-Cyanophenyl)-4-piperidino-6,7-dihydro-5H-cyclopenta[d]pyrimidine]
39 | 247 °C | N#Cc1ccc(-c2nc3c(c(N4CCOCC4)n2)CCC3)cc1 [Example 73, 2-(4-Cyanophenyl)-4-morpholino-6,7-dihydro-5H-cyclopenta[d]pyrimidine]
40 | 219 °C | N#Cc1ccc(-c2nc3c(c(NCc4cccnc4)n2)CCC3)cc1 [Example 74, 2-(4-Cyanophenyl)-4-((3-pyridylmethyl)amino)-6,7-dihydro-5H-cyclopenta[d]-pyrimidine]
